Data set [1] is described as follows: MENT Ac subcutaneous implants in healthy men: serum MENT levels and in vivo release. Also noted: species or system human. Here is the method:
(§1) Forty-five healthy, normal male subjects were selected for a study of the contraceptive effect of androgens alone. Subjects were treated over the course of four weeks, during which extensive blood work-ups were undertaken. The subjects were divided into three groups of 15 each. Group A received one subcutaneous implant, Group B received two subcutaneous implants and Group C received four subcutaneous implants. Implants remained in place for 28 consecutive days.
(§2) The total duration of the study was 42 days. Each man included in the study was assessed through a medical history and a complete general physical examination and a determination of general eligibility. Subjects were tested on a weekly basis for six consecutive weeks at approximately the same time each day. Day 1 was the date of the subdermal implant's insertion and Day 29 was removal. On the last day of the study, Day 43, subjects received a general physical examination, as well as an additional battery of blood tests. Blood samples for hormone immuno assays MENT (7 mL), FSH, LH and testosterone (5 mL for the last 3 hormones together) were obtained during pre-admission and each subsequent visit.

In data set [2] the test system is serum levels of LH, FSH, T and DHT. Nature of the data set: MENT Ac subcutaneous implants in healthy men for 28 days: serum hormone levels. Type of data set: in vivo, human. How it is done:
as §1, §2
FIG. 2 illustrates the effect of MENT Ac implants on mean serum LH concentration. […] By suppressing LH, testosterone production is suppressed. […] A reduction in testosterone reduces or eliminates spermatogenesis. However, because androgen is being supplied, sexual function is generally maintained.
Finally, FIG. 3 illustrates the effect of MENT Ac implants on the mean serum FSH concentration. […] FSH stimulates germ cell production. If germ cells are present, but testosterone is insufficient, then spermatogenesis cannot take place and sperm cells will not be produced. Similarly, if FSH concentrations are low enough, germ cells will not be produced and spermatogenesis cannot take place irrespective of testosterone levels.

The next data set has as its system prostate. Particulars: in the potency ranges contemplated; cited from earlier work.
Data set [3] deals with serum levels of LH, FSH and T. Nature of the data set: Multiple-dose daily i.m. injection of MENT in normal men for six days: serum hormone levels. Type of data set: in vivo, human. How it is done:
Two multiple injection studies were undertaken in which groups of four normal, non-sterile men each received 1, 2 or 4 mg of MENT daily by intramuscular (i.m.) injection for six consecutive days (24 men, 12 in each study). The formulation in each injection included the appropriate amount of MENT suspended in 27.6 mg/mL of polyethylene glycol, 1.8 mg/mL of Tween 80 and 8.3 mg/mL of sodium chloride. Serum FSH, LH and testosterone levels were measured daily. The results are illustrated in FIGS. 7-12.
The values returned to the normal range by day 15-30 of the study period. With reference to FIG. 8 (open boxes connected by a line=1 mg, closed boxes connected by a line=2 mg, open circles connected by a line=4 mg) a dose of at least 4 mg was required to obtain serum levels of FSH below two international units (“IU”) per liter by day 6. This must be compared with the results obtained by the use of 1000 μg (1 mg) of the same androgen delivered by a subcutaneous implant as illustrated in FIGS. 2-4 and Example 1. Therefore, considerably more of this same androgen was required to obtain certain depressed serum levels of LH, FSH and testosterone in males when the androgen was administered through a once-a-day intramuscular injection when compared to continuous release implants. […] FIG. 7 illustrates the level of serum LH achieved in the first study and FIG. 9 illustrates the level of serum testosterone achieved. FIGS. 10-12 illustrate the levels of LH, FSH and testosterone realized by the same protocol at the second testing site. Both the data and the overall trends of both studies are largely the same.

Setting [4] is: single implant, about 500 micrograms MENT Ac per day, about 28 days.
The mark [5] stands for this setting: two implants simultaneously, about 1,000 micrograms MENT Ac per day.

For `CC(=O)O[C@H]1CC[C@H]2[C@H]3[C@H](CC[C@]12C)[C@H]1CCC(=O)C=C1C[C@H]3C` [MENT Ac], the release rate entry in data set [1] (4.4 cm implant, drug load 112±4 mg MENT Ac, based on an in vivo study) is listed as “approximately 500 micrograms per implant per day”. Further, in data set [1] (certain subcutaneous implants, MENT Ac compared with MENT), the bioavailability from implants entry is recorded as “superior in terms of bioavailability”. Moreover, the “hydrolysis to MENT” value in data set [1] (in vivo) is recorded as “readily hydrolyzed to MENT”. Besides, the “mean serum LH concentration” value is “nearly undetectable levels of LH” in data set [2] (2 or 4 implants (500 micrograms each), day 8) and “dropped significantly” in data set [2] (first post implant visit on day 8, one, two or four implants). Also, in data set [2] (four 500 microgram per day implants simultaneously), the “levels of LH, FSH and testosterone” value is given as “very comparable to those obtained at the 1000 microgram per day level”. Further, the “mean serum FSH concentration” value in data set [2] (one, two or four implants) is on record as “significant impact on the serum FSH concentration”. For the same molecule, the “mean serum T concentration (testosterone)” value in data set [2] (single implant) is listed as “much reduced levels of testosterone”; in data set [2] (two or four implants) it was “very low testosterone levels”. In addition, the “daily blood levels of FSH (average)” value in data set [2] (setting [4]) is listed as “above 2 IU/L”; in data set [2] (setting [5]), “less than 0.5 IU/L”. For the same molecule, the “daily blood levels of LH (average)” value was “below 2 IU/L” in data set [2] (setting [4]) and “less than 0.5 IU/L” in data set [2] (setting [5]). Moreover, the “daily blood levels of testosterone” value was “about 5.0 nmol/liter” in data set [2] (setting [4]) and “about 1.0 nmol/liter” in data set [2] (setting [5]).
On to `C[C@@H]1CC2=CC(=O)CC[C@@H]2[C@H]2CC[C@]3(C)[C@@H](O)CC[C@H]3[C@@H]21` [MENT, 7α-methyl-19-nortestosterone], for which the “stimulation of the prostate” value in the data set with prostate is reported as “stimulates the prostate to a much lower degree”. In addition, the “result in terms of testosterone (contraceptive adequacy)” value in data set [3] (1 mg MENT by i.m. injection once a day) was “inadequate for contraceptive purposes”. In addition, the “contraceptive adequacy from serum testosterone (FIGS. 9 and 12)” value in data set [3] (4 mg MENT by once-a-day i.m. injection) is on record as “sufficient to ensure that some level of effective contraception is obtained”. In addition, the “serum gonadotropins and testosterone levels” value in data set [3] (1, 2 or 4 mg MENT daily i.m. for six days, both studies) is reported as “gradual decrease”. The “time at which serum gonadotropins and testosterone reached their lowest levels” value in data set [3] (1, 2 or 4 mg MENT daily i.m., end of treatment) is listed as “six”. For the same molecule, the “study day by which values returned to the normal range” value in data set [3] (after 1, 2 or 4 mg MENT daily i.m. for six days) is 15 to 30 days. Besides, the “dose required to obtain serum levels of FSH below two IU per liter by day 6” value in data set [3] (daily i.m. injection, first study, FIG. 8) was “at least 4 mg”. Moreover, in data set [2] (MENT Ac implants, FIG. 5), the “levels of the metabolite DHT” value was “actually decreased”.
Turning to `C[C@]12CC[C@H]3[C@@H](CCC4=CC(=O)CC[C@@]43C)[C@@H]1CC[C@@H]2O` [testosterone, reference compound], the “stimulation of the prostate” value in the data set with prostate is listed as “can overstimulate the prostate”.

These data come from patent US6767902B2, “Androgen as a male contraceptive and non-contraceptive androgen replacement” (The Population Council, Inc., priority 1997, dated 2004).
